The target in data set [1] is T1, AIDV reverse transcriptase (Human immunodeficiency virus type 1 group M subtype B, UniProt P04585).
T1 construct: purified AIDV reverse transcriptase
The data set can be described thus: Inhibition of purified AIDV reverse transcriptase. The conditions noted are these: purified enzyme; for activity of AIDV reverse transcriptase: in vitro. Type of data set: biochemical. The source says:
This property is both unusual and valuable for the treatment and prophylaxis of CNS infections caused by human retroviruses.

The next data set deals with human DNA polymerase. The data set can be described thus: Effect on human DNA polymerase activity. Type of data set: biochemical. The settings on record: in vitro.
Data set [2] deals with avian myeloblastosis virus and Moloney murine leukaemia virus. The data set can be described thus: Chain termination of reverse transcription. Format: biochemical. The settings on record: evidenced by effect on avian myeloblastosis virus and Moloney murine leukaemia virus.
The subject of data set [3] is AIDV. The experiment in a line: AIDV infection of H9 human lymphoblastoid cell-line. Format: cell-based. The settings on record: concentrations as low as; up to 20 hours after infection.
Data set [4] concerns AIDV. The data set can be described thus: AIDV infection of U937 cells, PHA-stimulated white blood cells and cultured peripheral blood lymphocytes. Format: cell-based.
Data set [5] relates to AIDV. Type of data set: cell-based.
Data set [6] deals with AIDV. Type of data set: cell-based. The settings on record: same cell-line transformed by HTLV-I and super-infected with AIDV.
In data set [7] the test system is Rauscher Murine Leukaemia Virus. The experiment in a line: Mouse model of retrovirus-induced malignancy (splenomegaly). Type of data set: in vivo.
The subject of a further data set is HTLV-I. The experiment in a line: In vitro replication of HTLV-I. The settings on record: concentrations as low as. Type of data set: cell-based.
The test system of another data set is vaccinia. The conditions noted are these: De Clerq et al.; cited from earlier work.
Another data set relates to HSVI. The settings on record: De Clerq et al.; cited from earlier work.
Data set [8] has as its system varicella zoster virus (VZV). The conditions noted are these: De Clerq et al.; cited from earlier work.
For data set [9], the system named is Friend Leukaemia Virus (FLV). The conditions noted are these: cited from earlier work.

Regarding `Cc1cn([C@H]2C[C@H](N=[N+]=[N-])[C@@H](COP(=O)(O)OP(=O)(O)OP(=O)(O)O)O2)c(=O)[nH]c1=O` [3'-Azido-3'-deoxythymidine-5'-triphosphate], in data set [1], the “mechanism of inhibition of AIDV reverse transcriptase” value is listed as “competitive inhibition” and the “activity of AIDV reverse transcriptase” value is reported as “blocked”. Moreover, the “activity of AIDV reverse transcriptase” value in data set [1] ([…]) is reported as “inhibits”. For the same compound, the “effect on human DNA polymerase activity” value in the data set on human DNA polymerase is listed as “negligible effect”. Besides, the “chain termination in the reverse transcription of AIDV” value in data set [2] is “effective chain terminator”.
In the case of `Cc1cn([C@H]2C[C@H](N=[N+]=[N-])[C@@H](CO)O2)c(=O)[nH]c1=O`, the “conversion in vivo by cellular enzymes” value is given as “converted in vivo, by the action of cellular enzymes into the 5'-monophosphate”. In the data set on AIDV [3], the “concentration effectively preventing infection of the H9 human lymphoblastoid cell-line by AIDV” value stood at 0.013 µg/mL. In addition, in the data set on AIDV [4] (PHA-stimulated white blood cells), the “AIDV infection of PHA-stimulated white blood cells” value is listed as “prevented at similarly low concentrations”. In the data set on AIDV [4] (U937 human lymphoblastoid cells), the “AIDV infection of U937 human lymphoblastoid cells” value is “prevented at similarly low concentrations”. In addition, the “AIDV infection of cultured peripheral blood lymphocytes” value in the data set on AIDV [4] (cultured peripheral blood lymphocytes) is “prevented at similarly low concentrations”. Besides, the decrease in cells result in the data set on AIDV [5] is on record as “no decrease”. The Cytopathic effects result in the data set with AIDV [6] is “completely blocked”. Moreover, in [7], the “splenomegaly caused by intravenously administered Rauscher Murine Leukaemia Virus” value was “prevented”. In the data set with HTLV-I, the “concentration inhibiting the in vitro replication of HTLV-I” value is 0.8 µg/mL. In addition, in the data set on vaccinia, the activity against vaccinia result is listed as “no appreciable activity”. For the same compound, the “activity against HSVI” value with HSVI is listed as “no appreciable activity”. In addition, the “activity against varicella zoster virus (VZV)” value in data set [8] is given as “no appreciable activity”. In [9], the cellular toxicity entry is given as “lack of cellular toxicity”. Besides, in data set [9] (in vitro, Krieg et al.), the “formation of A-type particles of FLV complex” value is recorded as “increased” and the “release of C-type particles of FLV complex” value was “affected”.
Take `Cc1cn([C@H]2C[C@H](N=[N+]=[N-])[C@@H](COP(=O)(O)O)O2)c(=O)[nH]c1=O` [Example 13]: the “conversion in vivo by cellular enzymes” value is on record as “further phosphorylated by other enzymes to form the triphosphate via the diphosphate”.

(Values after patent EP0306597B2, “Antiviral nucleosides” (THE WELLCOME FOUNDATION LIMITED, priority 1985, dated 1986).)
